{
  "source": "patent US10409869B2",
  "about": "“(R)- and (S)-1-(3-(3-N,N-dimethylaminocarbonyl)phenoxyl-4-nitrophenyl)-1-ethyl-N,N'-bis (ethylene)phosphoramidate, compositions and methods for their use and preparation” (OBI Pharma, Inc., priority 2015, dated 2019)",
  "key": {"[1]": {"assay": "Serum chemistry in monkeys, 2 mg/kg 30-min IV infusion", "format": "in vivo, Cynomolgus monkeys", "protocol": "(§1) TH 3423 and TH 3424 were tested in […] naïve monkeys (1 male and one female for each compound at 2 mg/kg) with 30-min intravenous infusion, TK sampling: on Day 1 and Day 15: 0.25, 0.5, 0.75, 1 and 2 hr post infusion initiation. Serum chemistry and hematology: pre-dose (Day 1), day 5, day 8 (pre-dose), day 15 (pre-dose), day 22 and day 28. Clinical observation: Daily during the study, total 35 days. Food consumption: Daily during the study, total 35 days. Bodyweight measurement: Twice weekly for five weeks."}, "[2]": {"assay": "Body weight in monkeys, 2 mg/kg 30-min IV infusion", "format": "in vivo, Cynomolgus monkeys", "details": "Day 1, Mean", "protocol": "as §1"}},
  "data": [
    {"smiles": "C[C@@H](OP(=O)(N1CC1)N1CC1)c1ccc([N+](=O)[O-])c(Oc2cccc(C(=O)N(C)C)c2)c1", "note": "(single isomer, unassigned) [TH3423]", "values": [
      {"measurement": "A/G", "setting": "[1]; female, Day 1 (pre-dose)", "result": 1.8},
      {"measurement": "ALB", "setting": "[1]; female, Day 1 (pre-dose)", "result": 42, "unit": "g/L"},
      {"measurement": "ALP", "setting": "[1]; female, Day 1 (pre-dose)", "result": 205.5, "unit": "U/L"},
      {"measurement": "ALT", "setting": "[1]; female, Day 1 (pre-dose)", "result": 41.7, "unit": "U/L"},
      {"measurement": "AST", "setting": "[1]; female, Day 1 (pre-dose)", "result": 43.3, "unit": "U/L"},
      {"measurement": "BUN", "setting": "[1]; female, Day 1 (pre-dose)", "result": 4.06, "unit": "mM"},
      {"measurement": "CK", "setting": "[1]; female, Day 1 (pre-dose)", "result": 342, "unit": "U/L"},
      {"measurement": "CREA", "setting": "[1]; female, Day 1 (pre-dose)", "result": 95, "unit": "µM"},
      {"measurement": "Ca", "setting": "[1]; female, Day 1 (pre-dose)", "result": 2.39, "unit": "mmol/L"},
      {"measurement": "GLB", "setting": "[1]; female, Day 1 (pre-dose)", "result": 24, "unit": "g/L"},
      {"measurement": "Glu", "setting": "[1]; female, Day 1 (pre-dose)", "result": 6.03, "unit": "mM"},
      {"measurement": "K", "setting": "[1]; female, Day 1 (pre-dose)", "result": 6.14, "unit": "mmol/L"},
      {"measurement": "Na", "setting": "[1]; female, Day 1 (pre-dose)", "result": 146, "unit": "mmol/L"},
      {"measurement": "TBIL", "setting": "[1]; female, Day 1 (pre-dose)", "result": 0.0, "unit": "µM"},
      {"measurement": "TC", "setting": "[1]; female, Day 1 (pre-dose)", "result": 2.48, "unit": "mM"},
      {"measurement": "TG", "setting": "[1]; female, Day 1 (pre-dose)", "result": 0.45, "unit": "mmol/L"},
      {"measurement": "TP", "setting": "[1]; female, Day 1 (pre-dose)", "result": 66.0, "unit": "g/L"},
      {"measurement": "γ-GT", "setting": "[1]; female, Day 1 (pre-dose)", "result": 41.5, "unit": "U/L"},
      {"measurement": "A/G", "setting": "[1]; female, Day 8 (pre-dose)", "result": 1.3},
      {"measurement": "ALB", "setting": "[1]; female, Day 8 (pre-dose)", "result": 40.9, "unit": "g/L"},
      {"measurement": "ALP", "setting": "[1]; female, Day 8 (pre-dose)", "result": 190.3, "unit": "U/L"},
      {"measurement": "ALT", "setting": "[1]; female, Day 8 (pre-dose)", "result": 25.5, "unit": "U/L"},
      {"measurement": "AST", "setting": "[1]; female, Day 8 (pre-dose)", "result": 57.7, "unit": "U/L"},
      {"measurement": "BUN", "setting": "[1]; female, Day 8 (pre-dose)", "result": 7.61, "unit": "mM"},
      {"measurement": "CK", "setting": "[1]; female, Day 8 (pre-dose)", "result": 126, "unit": "U/L"},
      {"measurement": "CREA", "setting": "[1]; female, Day 8 (pre-dose)", "result": 120, "unit": "µM"},
      {"measurement": "Ca", "setting": "[1]; female, Day 8 (pre-dose)", "result": 2.47, "unit": "mmol/L"},
      {"measurement": "GLB", "setting": "[1]; female, Day 8 (pre-dose)", "result": 30.9, "unit": "g/L"},
      {"measurement": "Glu", "setting": "[1]; female, Day 8 (pre-dose)", "result": 2.13, "unit": "mM"},
      {"measurement": "K", "setting": "[1]; female, Day 8 (pre-dose)", "result": 4.83, "unit": "mmol/L"},
      {"measurement": "Na", "setting": "[1]; female, Day 8 (pre-dose)", "result": 149, "unit": "mmol/L"},
      {"measurement": "TBIL", "setting": "[1]; female, Day 8 (pre-dose)", "result": 0.4, "unit": "µM"},
      {"measurement": "TC", "setting": "[1]; female, Day 8 (pre-dose)", "result": 3.01, "unit": "mM"},
      {"measurement": "TG", "setting": "[1]; female, Day 8 (pre-dose)", "result": 1.17, "unit": "mmol/L"},
      {"measurement": "TP", "setting": "[1]; female, Day 8 (pre-dose)", "result": 71.8, "unit": "g/L"},
      {"measurement": "γ-GT", "setting": "[1]; female, Day 8 (pre-dose)", "result": 37.0, "unit": "U/L"},
      {"measurement": "A/G", "setting": "[1]; female, Day 15 (pre-dose)", "result": 1.7},
      {"measurement": "ALB", "setting": "[1]; female, Day 15 (pre-dose)", "result": 34.2, "unit": "g/L"},
      {"measurement": "ALP", "setting": "[1]; female, Day 15 (pre-dose)", "result": 123.6, "unit": "U/L"},
      {"measurement": "ALT", "setting": "[1]; female, Day 15 (pre-dose)", "result": 21.1, "unit": "U/L"},
      {"measurement": "AST", "setting": "[1]; female, Day 15 (pre-dose)", "result": 76.7, "unit": "U/L"},
      {"measurement": "BUN", "setting": "[1]; female, Day 15 (pre-dose)", "result": 5.96, "unit": "mM"},
      {"measurement": "CK", "setting": "[1]; female, Day 15 (pre-dose)", "result": 78, "unit": "U/L"},
      {"measurement": "CREA", "setting": "[1]; female, Day 15 (pre-dose)", "result": 69, "unit": "µM"},
      {"measurement": "Ca", "setting": "[1]; female, Day 15 (pre-dose)", "result": 2.36, "unit": "mmol/L"},
      {"measurement": "GLB", "setting": "[1]; female, Day 15 (pre-dose)", "result": 20.7, "unit": "g/L"},
      {"measurement": "Glu", "setting": "[1]; female, Day 15 (pre-dose)", "result": 2.51, "unit": "mM"},
      {"measurement": "K", "setting": "[1]; female, Day 15 (pre-dose)", "result": 4.81, "unit": "mmol/L"},
      {"measurement": "Na", "setting": "[1]; female, Day 15 (pre-dose)", "result": 128.17, "unit": "mmol/L"},
      {"measurement": "TBIL", "setting": "[1]; female, Day 15 (pre-dose)", "result": 1.4, "unit": "µM"},
      {"measurement": "TC", "setting": "[1]; female, Day 15 (pre-dose)", "result": 2.02, "unit": "mM"},
      {"measurement": "TG", "setting": "[1]; female, Day 15 (pre-dose)", "result": 0.84, "unit": "mmol/L"},
      {"measurement": "TP", "setting": "[1]; female, Day 15 (pre-dose)", "result": 54.9, "unit": "g/L"},
      {"measurement": "γ-GT", "setting": "[1]; female, Day 15 (pre-dose)", "result": 29.4, "unit": "U/L"},
      {"measurement": "A/G", "setting": "[1]; male, Day 1 (pre-dose)", "result": 1.8},
      {"measurement": "ALB", "setting": "[1]; male, Day 1 (pre-dose)", "result": 46.9, "unit": "g/L"},
      {"measurement": "ALP", "setting": "[1]; male, Day 1 (pre-dose)", "result": 746.4, "unit": "U/L"},
      {"measurement": "ALT", "setting": "[1]; male, Day 1 (pre-dose)", "result": 45.0, "unit": "U/L"},
      {"measurement": "AST", "setting": "[1]; male, Day 1 (pre-dose)", "result": 37.0, "unit": "U/L"},
      {"measurement": "BUN", "setting": "[1]; male, Day 1 (pre-dose)", "result": 3.47, "unit": "mM"},
      {"measurement": "CK", "setting": "[1]; male, Day 1 (pre-dose)", "result": 146, "unit": "U/L"},
      {"measurement": "CREA", "setting": "[1]; male, Day 1 (pre-dose)", "result": 66, "unit": "µM"},
      {"measurement": "Ca", "setting": "[1]; male, Day 1 (pre-dose)", "result": 2.54, "unit": "mmol/L"},
      {"measurement": "GLB", "setting": "[1]; male, Day 1 (pre-dose)", "result": 26, "unit": "g/L"},
      {"measurement": "Glu", "setting": "[1]; male, Day 1 (pre-dose)", "result": 3.12, "unit": "mM"},
      {"measurement": "K", "setting": "[1]; male, Day 1 (pre-dose)", "result": 6.92, "unit": "mmol/L"},
      {"measurement": "Na", "setting": "[1]; male, Day 1 (pre-dose)", "result": 143, "unit": "mmol/L"},
      {"measurement": "TBIL", "setting": "[1]; male, Day 1 (pre-dose)", "result": 5.2, "unit": "µM"},
      {"measurement": "TC", "setting": "[1]; male, Day 1 (pre-dose)", "result": 2.1, "unit": "mM"},
      {"measurement": "TG", "setting": "[1]; male, Day 1 (pre-dose)", "result": 0.24, "unit": "mmol/L"},
      {"measurement": "TP", "setting": "[1]; male, Day 1 (pre-dose)", "result": 72.9, "unit": "g/L"},
      {"measurement": "γ-GT", "setting": "[1]; male, Day 1 (pre-dose)", "result": 78.4, "unit": "U/L"},
      {"measurement": "A/G", "setting": "[1]; male, Day 8 (pre-dose)", "result": 1.1},
      {"measurement": "ALB", "setting": "[1]; male, Day 8 (pre-dose)", "result": 39.1, "unit": "g/L"},
      {"measurement": "ALP", "setting": "[1]; male, Day 8 (pre-dose)", "result": 540.3, "unit": "U/L"},
      {"measurement": "ALT", "setting": "[1]; male, Day 8 (pre-dose)", "result": 21.0, "unit": "U/L"},
      {"measurement": "AST", "setting": "[1]; male, Day 8 (pre-dose)", "result": 40.8, "unit": "U/L"},
      {"measurement": "BUN", "setting": "[1]; male, Day 8 (pre-dose)", "result": 26.8, "unit": "mM"},
      {"measurement": "CK", "setting": "[1]; male, Day 8 (pre-dose)", "result": 153, "unit": "U/L"},
      {"measurement": "CREA", "setting": "[1]; male, Day 8 (pre-dose)", "result": 141, "unit": "µM"},
      {"measurement": "Ca", "setting": "[1]; male, Day 8 (pre-dose)", "result": 2.55, "unit": "mmol/L"},
      {"measurement": "GLB", "setting": "[1]; male, Day 8 (pre-dose)", "result": 37.1, "unit": "g/L"},
      {"measurement": "Glu", "setting": "[1]; male, Day 8 (pre-dose)", "result": 5.28, "unit": "mM"},
      {"measurement": "K", "setting": "[1]; male, Day 8 (pre-dose)", "result": 5.86, "unit": "mmol/L"},
      {"measurement": "Na", "setting": "[1]; male, Day 8 (pre-dose)", "result": 112, "unit": "mmol/L"},
      {"measurement": "TBIL", "setting": "[1]; male, Day 8 (pre-dose)", "result": 9.8, "unit": "µM"},
      {"measurement": "TC", "setting": "[1]; male, Day 8 (pre-dose)", "result": 1.72, "unit": "mM"},
      {"measurement": "TG", "setting": "[1]; male, Day 8 (pre-dose)", "result": 2.25, "unit": "mmol/L"},
      {"measurement": "TP", "setting": "[1]; male, Day 8 (pre-dose)", "result": 76.2, "unit": "g/L"},
      {"measurement": "γ-GT", "setting": "[1]; male, Day 8 (pre-dose)", "result": 37.6, "unit": "U/L"},
      {"measurement": "body weight", "setting": "[2]", "result": 3.50}
    ]}
  ]
}
